Patent US10758609B2, “Cross-reactive T-cell epitopes of HIV, SIV, and FIV for vaccines in humans and cats” (priority 2015, dated 2020)
Residues, ends and D or L forms follow the SMILES beside them.

System: CD8^+ T cells from HIV^+ subjects
Experiment: FACS-based intracellular staining (ICS) for cytolysin (perforin) and cytotoxins (GrzA, GrzB) in CD8+ T cells
Conditions: HIV+ human subjects; for Cyto: CD8+ T-cell cytotoxins (perforin, GrzA & B), frequency of responders: FIV epitope peptide; for Cyto (cytolysin/cytotoxin production), frequency of responders: FIV peptides
Experimental: The overlapping peptide pools of FIV and HIV-1 structural and enzyme proteins were used to stimulate the […] (PBMC) and the T cells from HIV^+ subjects as previously described for epitope mapping of HIV-1 and FIV p24 and reverse transcriptase (RT) (Sanou et al., 2013; Roff et al., 2015). The individual peptides in those peptide pools with positive responses to either interferon-γ (IFNγ) production and/or T-cell proliferation were determined with IFNγ ELISpot analysis and CFSE-based CD3^+CD4^+ and CD3^+CD8^+ T-cell proliferation analyses followed by the FACS-based intracellular staining (ICS) for cytolysin (perforin) and cytotoxin (granzyme A [GrzA] and GrzB) (Sanou et al., 2013; Roff et al., 2015). Besides viral p24 and RT proteins, the identical approach was used to identify anti-HIV/FIV T-cell epitopes on viral matrix (MA), nucleocapsid (NC), protease (PR), RNAase, integrase (IN), surface envelope (SU Env), and transmembrane envelope (TM Env) (FIG. 12).
Since our goal is to develop HIV vaccine for human use, the HIV peptides (Table 10) counterpart of the cross-reactive FIV peptides shown in Table 9 were tested with PBMC and T cells from HIV^+ subjects. The immune functions analyzed were human IFNγ production by ELISpot, cytolysin/cytotoxin production by ICS, and CFSE-based proliferation of CD3^+CD4^+ and CD3^+CD8^+ T cells from HIV^+ subjects (Table 10, the first set of results). In addition, the Los Alamos National Laboratories (LANL) database was used to identify the HLA allele(s) of the HIV epitope sequence with CTL activity that can exist within the sequence of the conserved counterpart HIV peptide (Table 9, LANL CTL). The bold HLA class-I supertypes and the bold 2-digit alleles are those on the “Optimal CD8^+ CTL Epitopes” list and those without bold are alleles for potential CTL epitope. […] The HLA class II such as HLA-DRB1 has yet to be fully classified into supertypes, and therefore the 4-digit resolution nomenclatures for the HLA-DRB1 alleles are shown.
The threshold for positive IFNγ and IL2 ELISpot responses is ≥50 spot-forming units (SFU) per 10^6 PBMC. The threshold for CFSE-based CD4^+ and CD8^+ T-cell proliferation is ≥2% CD4^+ T-cell CFSE^low or CD8^+ T-cell CFSE^low. The threshold of FACS-based intracellular cytokine staining (ICS) is ≥0.2%. […] The nine FIV peptides in black were used in the current MAP vaccine trial, whereas the 13 peptides in blue were not used. […] The MAPs and their corresponding peptide(s) were also tested for their ability to enhance or suppress in vitro FIV infection of feline PBMC (E/S of peptides and E/S of MAP).
The counterpart HIV-1 peptides of the FIV peptides were also tested for immunogenicity using PBMC and T cells from HIV^+ human subjects. […] The HRT7-1 and HRT7-2 were also tested with cells from HIV^+ subjects on ART. The threshold for positive IFNγ ELISpot response is ≥75 spot-forming units (SFU) per 10^6 PBMC. The threshold for CFSE-based CD4^+ (CD4^+ T) and CD8^+ (CD8^+ T) T-cell proliferation is ≥2% CD4^+ T-cell CFSE^low or CD8^+ T-cell CFSE^low. The threshold of intracellular cytokine staining (ICS) of FACS-based cytolysin (perforin) and cytotoxins (granzymes A and B) in CD4^+ T cells (CyCD4) and CD8^+ T cells (CyCD8) is ≥0.2%. […] The nine HIV-1 peptides in black are the counterpart FIV peptides used in the current MAP vaccine trial, whereas the 13 peptides in blue were not.

In the case of `CC[C@H](C)[C@H](NC(=O)[C@H](CCCNC(=N)N)NC(=O)[C@H](CC(C)C)NC(=O)[C@H](CO)NC(=O)[C@H](CCC(=O)O)NC(=O)[C@H](CCC(N)=O)NC(=O)[C@H](CCC(N)=O)NC(=O)[C@H](CCSC)NC(=O)[C@H](Cc1ccc(O)cc1)NC(=O)[C@H](CC(C)C)NC(=O)[C@H](CCC(=O)O)NC(=O)[C@@H](N)Cc1ccc(O)cc1)C(=O)N[C@@H](CCC(N)=O)C(=O)N[C@@H](CC(=O)O)C(=O)N[C@@H](CCCNC(=N)N)C(=O)O` [FIN7-1] (H-YELYMQQESLRIQDR-OH; N-terminus and C-terminus assumed), the “Cyto: CD8+ T-cell cytotoxins (perforin, GrzA & B), frequency of responders” value (“Cyto: CD8+ T-cell cytotoxins” below) is reported as “++ (26%-40% (++))” and the “Cyto (cytolysin/cytotoxin production), frequency of responders” value (shortened to “Cyto (cytolysin/cytotoxin production)”) is reported as “++ (25.1%-40% (++))”.
In the case of `CC[C@H](C)[C@H](N)C(=O)N[C@@H](CC(=O)O)C(=O)N[C@@H](Cc1ccccc1)C(=O)N[C@@H](CCCNC(=N)N)C(=O)N[C@H](C(=O)N[C@@H](CC(C)C)C(=O)N[C@@H](CC(N)=O)C(=O)N[C@@H](CCCCN)C(=O)N[C@@H](CC(C)C)C(=O)N[C@H](C(=O)N[C@@H](CC(=O)O)C(=O)N[C@@H](CCCCN)C(=O)NCC(=O)N[C@@H](C)C(=O)O)[C@@H](C)O)C(C)C` [FRT3-5] (H-IDFRVLNKLTDKGA-OH; N-terminus and C-terminus assumed), the “Cyto: CD8+ T-cell cytotoxins” value is reported as “+++ (41%-54% (+++))”.
For `CC(C)C[C@H](NC(=O)[C@@H](NC(=O)[C@H](Cc1c[nH]c2ccccc12)NC(=O)CNC(=O)[C@H](CCC(N)=O)NC(=O)[C@@H]1CCCN1C(=O)[C@H](CC(C)C)NC(=O)[C@H](CO)NC(=O)[C@H](CS)NC(=O)[C@H](Cc1c[nH]c2ccccc12)NC(=O)[C@@H](NC(=O)[C@H](Cc1ccc(O)cc1)NC(=O)[C@H](CCCNC(=N)N)NC(=O)[C@H](CCCNC(=N)N)NC(=O)CN)C(C)C)C(C)C)C(=O)O` [FRT7-1] (H-GRRYVWCSLPQGWVL-OH), the “Cyto: CD8+ T-cell cytotoxins” value was “+++ (41%-54% (+++))” and the “Cyto (cytolysin/cytotoxin production)” value was “+++ (40.1%-54% (+++))”.
For `CC[C@H](C)[C@H](NC(=O)[C@H](CC(C)C)NC(=O)[C@@H]1CCCN1C(=O)[C@H](CO)NC(=O)[C@H](CC(C)C)NC(=O)[C@@H](NC(=O)[C@H](Cc1c[nH]c2ccccc12)NC(=O)CNC(=O)[C@H](CCC(N)=O)NC(=O)[C@@H]1CCCN1C(=O)[C@H](CC(C)C)NC(=O)[C@H](CO)NC(=O)[C@@H](N)CS)C(C)C)C(=O)N[C@@H](Cc1ccc(O)cc1)C(=O)O` [FRT7-2] (H-CSLPQGWVLSPLIY-OH), the “Cyto: CD8+ T-cell cytotoxins” value was “++++ (>54% (++++))” and the “Cyto (cytolysin/cytotoxin production)” value was “++++ (>54% (++++))”.
In the case of `CSCC[C@H](NC(=O)[C@H](CCCNC(=N)N)NC(=O)[C@H](C)NC(=O)[C@@H]1CCCN1C(=O)[C@H](C)NC(=O)[C@@H](N)Cc1ccccc1)C(=O)N[C@@H](CCC(N)=O)C(=O)N[C@@H](CS)C(=O)N[C@@H](CCCNC(=N)N)C(=O)N[C@@H](C)C(=O)N[C@@H](Cc1c[nH]c2ccccc12)C(=O)N[C@@H](Cc1ccc(O)cc1)C(=O)N[C@@H](CC(C)C)C(=O)N[C@@H](CCC(=O)O)C(=O)N[C@@H](C)C(=O)O` [Fp9-3] (H-FAPARMQCRAWYLEA-OH), the “Cyto: CD8+ T-cell cytotoxins” value is reported as “+++ (41%-54% (+++))” and the “Cyto (cytolysin/cytotoxin production)” value is reported as “+++ (40.1%-54% (+++))”.
`CC(C)C[C@H](NC(=O)[C@H](Cc1ccc(O)cc1)NC(=O)[C@H](CC(C)C)NC(=O)[C@H](CCCCN)NC(=O)[C@@H](NC(=O)[C@H](CCC(=O)O)NC(=O)[C@H](C)NC(=O)[C@@H](NC(=O)[C@H](CC(N)=O)NC(=O)[C@H](CCC(N)=O)NC(=O)[C@H](CCC(=O)O)NC(=O)[C@H](CCC(N)=O)NC(=O)[C@@H](N)CC(=O)O)[C@@H](C)O)C(C)C)C(=O)N[C@@H](CCCCN)C(=O)O` [Fp14-1] (H-DQEQNTAEVKLYLK-OH) was tested, and the “Cyto: CD8+ T-cell cytotoxins” value was “+++ (41%-54% (+++))” and the “Cyto (cytolysin/cytotoxin production)” value was “+++ (40.1%-54% (+++))”.
